Assay: xn = mol fraction of the nth substance listed
Conditions: 100 kPa, Liquid; for viscosity: Capillary tube (Ostwald / Ubbelohde) method; for mass density: Vibrating tube method

O=C1CCCCCO1 [6-hexanolactone] + CCCC[n+]1ccn(C)c1.O=S(=O)([N-]S(=O)(=O)C(F)(F)F)C(F)(F)F
Conditions | mass density [kg/m3] | viscosity [mPa·s]
293.15 K, x2 = 0 | 1075.92 | 6.63
293.15 K, x2 = 0.05 | 1122.04 | 7.97
293.15 K, x2 = 0.1002 | 1161.48 | 9.67
293.15 K, x2 = 0.1505 | 1195.51 | 11.48
293.15 K, x2 = 0.1985 | 1223.86 | 13.4
293.15 K, x2 = 0.3001 | 1273.58 | 18.05
293.15 K, x2 = 0.3987 | 1311.9 | 23.25
293.15 K, x2 = 0.4903 | 1341.13 | 28.59
293.15 K, x2 = 0.6309 | 1377.36 | 37.38
293.15 K, x2 = 0.6988 | 1391.97 | 41.8
293.15 K, x2 = 0.8042 | 1411.81 | 48.8
293.15 K, x2 = 0.883 | 1424.76 | 54.08
298.15 K, x2 = 0 | 1071.67 | 5.76
298.15 K, x2 = 0.05 | 1117.68 | 6.87
298.15 K, x2 = 0.1002 | 1157.04 | 8.29
298.15 K, x2 = 0.1505 | 1191 | 9.78
298.15 K, x2 = 0.1985 | 1219.3 | 11.34
298.15 K, x2 = 0.3001 | 1268.92 | 15.14
298.15 K, x2 = 0.3987 | 1307.17 | 19.36
298.15 K, x2 = 0.4903 | 1336.35 | 23.66
298.15 K, x2 = 0.6309 | 1372.52 | 30.61
298.15 K, x2 = 0.6988 | 1387.11 | 34.05
298.15 K, x2 = 0.8042 | 1406.92 | 39.48
298.15 K, x2 = 0.883 | 1419.85 | 43.58
303.15 K, x2 = 0 | 1067.41 | 5.04
303.15 K, x2 = 0.05 | 1113.3 | 5.97
303.15 K, x2 = 0.1002 | 1152.56 | 7.18
303.15 K, x2 = 0.1505 | 1186.44 | 8.42
303.15 K, x2 = 0.1985 | 1214.67 | 9.71
303.15 K, x2 = 0.3001 | 1264.18 | 12.78
303.15 K, x2 = 0.3987 | 1302.35 | 16.15
303.15 K, x2 = 0.4903 | 1331.47 | 19.54
303.15 K, x2 = 0.6309 | 1367.57 | 25.2
303.15 K, x2 = 0.6988 | 1382.12 | 28.07
303.15 K, x2 = 0.8042 | 1401.89 | 32.58
303.15 K, x2 = 0.883 | 1414.8 | 36.02
308.15 K, x2 = 0 | 1063.15 | 4.44
308.15 K, x2 = 0.05 | 1108.94 | 5.22
308.15 K, x2 = 0.1002 | 1148.11 | 6.25
308.15 K, x2 = 0.1505 | 1181.92 | 7.26
308.15 K, x2 = 0.1985 | 1210.09 | 8.36
308.15 K, x2 = 0.3001 | 1259.51 | 10.91
308.15 K, x2 = 0.3987 | 1297.6 | 13.67
308.15 K, x2 = 0.4903 | 1326.67 | 16.42
308.15 K, x2 = 0.6309 | 1362.7 | 20.93
308.15 K, x2 = 0.6988 | 1377.23 | 23.21
308.15 K, x2 = 0.8042 | 1396.97 | 26.77
308.15 K, x2 = 0.883 | 1409.86 | 29.49
313.15 K, x2 = 0 | 1058.9 | 3.95
313.15 K, x2 = 0.05 | 1104.57 | 4.61
313.15 K, x2 = 0.1002 | 1143.65 | 5.5
313.15 K, x2 = 0.1505 | 1177.38 | 6.41
313.15 K, x2 = 0.1985 | 1205.49 | 7.35
313.15 K, x2 = 0.3001 | 1254.8 | 9.43
313.15 K, x2 = 0.3987 | 1292.82 | 11.71
313.15 K, x2 = 0.4903 | 1321.83 | 14.07
313.15 K, x2 = 0.6309 | 1357.8 | 17.79
313.15 K, x2 = 0.6988 | 1372.3 | 19.67
313.15 K, x2 = 0.8042 | 1392.01 | 22.59
313.15 K, x2 = 0.883 | 1404.86 | 24.85
318.15 K, x2 = 0 | 1054.65 | 3.53
318.15 K, x2 = 0.05 | 1100.22 | 4.07
318.15 K, x2 = 0.1002 | 1139.2 | 4.87
318.15 K, x2 = 0.1505 | 1172.86 | 5.67
318.15 K, x2 = 0.1985 | 1200.91 | 6.5
318.15 K, x2 = 0.3001 | 1250.12 | 8.31
318.15 K, x2 = 0.3987 | 1288.06 | 10.27
318.15 K, x2 = 0.4903 | 1317.02 | 12.18
318.15 K, x2 = 0.6309 | 1352.92 | 15.24
318.15 K, x2 = 0.6988 | 1367.39 | 16.82
318.15 K, x2 = 0.8042 | 1387.06 | 19.24
318.15 K, x2 = 0.883 | 1399.89 | 21.07
323.15 K, x2 = 0 | 1050.4 | 3.17
323.15 K, x2 = 0.05 | 1095.86 | 3.69
323.15 K, x2 = 0.1002 | 1134.75 | 4.36
323.15 K, x2 = 0.1505 | 1168.33 | 5.03
323.15 K, x2 = 0.1985 | 1196.32 | 5.73
323.15 K, x2 = 0.3001 | 1245.42 | 7.26
323.15 K, x2 = 0.3987 | 1283.28 | 8.9
323.15 K, x2 = 0.4903 | 1312.18 | 10.53
323.15 K, x2 = 0.6309 | 1348.01 | 13.14
323.15 K, x2 = 0.6988 | 1362.45 | 14.49
323.15 K, x2 = 0.8042 | 1382.08 | 16.64
323.15 K, x2 = 0.883 | 1394.89 | 18.26

O=C1CCCCO1 [1-oxacyclohexan-2-one] + CCCC[n+]1ccn(C)c1.O=S(=O)([N-]S(=O)(=O)C(F)(F)F)C(F)(F)F
Conditions | mass density [kg/m3] | viscosity [mPa·s]
293.15 K, x2 = 0 | 1108.53 | 3.68
293.15 K, x2 = 0.0532 | 1156.68 | 4.6
293.15 K, x2 = 0.1004 | 1196.3 | 5.91
293.15 K, x2 = 0.1504 | 1229.63 | 7.47
293.15 K, x2 = 0.1999 | 1257.2 | 8.95
293.15 K, x2 = 0.2988 | 1300.9 | 13.08
293.15 K, x2 = 0.4006 | 1337.77 | 17.95
293.15 K, x2 = 0.5005 | 1362.9 | 23.77
293.15 K, x2 = 0.5999 | 1384.82 | 30.89
293.15 K, x2 = 0.7 | 1402.18 | 37.58
293.15 K, x2 = 0.8013 | 1418.26 | 44.8
293.15 K, x2 = 0.8986 | 1429.23 | 52.57
298.15 K, x2 = 0 | 1103.96 | 3.3
298.15 K, x2 = 0.0532 | 1152.03 | 4.09
298.15 K, x2 = 0.1004 | 1191.61 | 5.26
298.15 K, x2 = 0.1504 | 1224.89 | 6.47
298.15 K, x2 = 0.1999 | 1252.42 | 7.78
298.15 K, x2 = 0.2988 | 1296.08 | 11.15
298.15 K, x2 = 0.4006 | 1332.91 | 15.14
298.15 K, x2 = 0.5005 | 1358.02 | 19.8
298.15 K, x2 = 0.5999 | 1379.92 | 25.62
298.15 K, x2 = 0.7 | 1397.27 | 31.17
298.15 K, x2 = 0.8013 | 1413.33 | 37.32
298.15 K, x2 = 0.8986 | 1424.29 | 43.18
303.15 K, x2 = 0 | 1099.44 | 2.98
303.15 K, x2 = 0.0532 | 1147.37 | 3.7
303.15 K, x2 = 0.1004 | 1186.86 | 4.58
303.15 K, x2 = 0.1504 | 1220.09 | 5.64
303.15 K, x2 = 0.1999 | 1247.58 | 6.74
303.15 K, x2 = 0.2988 | 1291.17 | 9.63
303.15 K, x2 = 0.4006 | 1327.96 | 12.92
303.15 K, x2 = 0.5005 | 1353.03 | 16.77
303.15 K, x2 = 0.5999 | 1374.9 | 21.34
303.15 K, x2 = 0.7 | 1392.22 | 25.71
303.15 K, x2 = 0.8013 | 1408.28 | 30.93
303.15 K, x2 = 0.8986 | 1419.22 | 35.78
308.15 K, x2 = 0 | 1094.83 | 2.7
308.15 K, x2 = 0.0532 | 1142.72 | 3.21
308.15 K, x2 = 0.1004 | 1182.16 | 4.08
308.15 K, x2 = 0.1504 | 1215.34 | 5.09
308.15 K, x2 = 0.1999 | 1242.79 | 6.06
308.15 K, x2 = 0.2988 | 1286.33 | 8.42
308.15 K, x2 = 0.4006 | 1323.08 | 11.04
308.15 K, x2 = 0.5005 | 1348.13 | 14.16
308.15 K, x2 = 0.5999 | 1369.99 | 18.33
308.15 K, x2 = 0.7 | 1387.29 | 21.9
308.15 K, x2 = 0.8013 | 1403.33 | 25.49
308.15 K, x2 = 0.8986 | 1414.26 | 29.16
313.15 K, x2 = 0 | 1090.27 | 2.47
313.15 K, x2 = 0.0532 | 1138.1 | 2.9
313.15 K, x2 = 0.1004 | 1177.47 | 3.67
313.15 K, x2 = 0.1504 | 1210.6 | 4.49
313.15 K, x2 = 0.1999 | 1238.01 | 5.31
313.15 K, x2 = 0.2988 | 1281.5 | 7.36
313.15 K, x2 = 0.4006 | 1318.2 | 9.61
313.15 K, x2 = 0.5005 | 1343.21 | 12.24
313.15 K, x2 = 0.5999 | 1365.03 | 15.74
313.15 K, x2 = 0.7 | 1382.31 | 18.59
313.15 K, x2 = 0.8013 | 1398.33 | 21.65
313.15 K, x2 = 0.8986 | 1409.25 | 24.7
318.15 K, x2 = 0 | 1085.71 | 2.25
318.15 K, x2 = 0.0532 | 1133.47 | 2.63
318.15 K, x2 = 0.1004 | 1172.79 | 3.24
318.15 K, x2 = 0.1504 | 1205.87 | 4.02
318.15 K, x2 = 0.1999 | 1233.25 | 4.72
318.15 K, x2 = 0.2988 | 1276.69 | 6.55
318.15 K, x2 = 0.4006 | 1313.34 | 8.49
318.15 K, x2 = 0.5005 | 1338.33 | 10.65
318.15 K, x2 = 0.5999 | 1360.13 | 13.7
318.15 K, x2 = 0.7 | 1377.38 | 15.98
318.15 K, x2 = 0.8013 | 1393.37 | 18.79
318.15 K, x2 = 0.8986 | 1404.27 | 21.14
323.15 K, x2 = 0 | 1081.16 | 2.09
323.15 K, x2 = 0.0532 | 1128.86 | 2.44
323.15 K, x2 = 0.1004 | 1168.12 | 2.96
323.15 K, x2 = 0.1504 | 1201.16 | 3.63
323.15 K, x2 = 0.1999 | 1228.6 | 4.26
323.15 K, x2 = 0.2988 | 1271.85 | 5.82
323.15 K, x2 = 0.4006 | 1308.45 | 7.49
323.15 K, x2 = 0.5005 | 1333.4 | 9.29
323.15 K, x2 = 0.5999 | 1355.18 | 11.2
323.15 K, x2 = 0.7 | 1372.41 | 13.85
323.15 K, x2 = 0.8013 | 1388.38 | 15.68
323.15 K, x2 = 0.8986 | 1399.26 | 17.85

From the NIST ThermoML archive (doi:10.1016/j.jct.2016.12.032)
